These results are taken from publication PMC7587356, “High-Throughput Screening for Inhibitors of the SARS-CoV-2 Protease Using a FRET-Biosensor” (Molecules, 2020).

In this test the target is SARS-CoV-2 3CLpro (Severe acute respiratory syndrome coronavirus 2, UniProt P0DTD1). The experiment in a line: biochemical. The class given is biochemical. Set-up: Replicate_1 / Replicate_2 / mean / mean (LOPAC_screen_w_protease): unit not given here. As to conditions: for inhibition at 5 µM: 4 h; for mean (LOPAC screen with protease) / Replicate_1 (LOPAC screen with protease) / Replicate_2 (LOPAC screen with protease): primary screen at 5 µM.

Where [1] appears, read: sheet LOPAC_screen_w_protease, primary screen with protease, mean of two replicates.
The mark [2] stands for this setting: sheet LOPAC_screen_w_protease, primary screen with protease, replicate 1.
Where [3] appears, read: sheet LOPAC_screen_w_protease, primary screen with protease, replicate 2.
Where [4] appears, read: sheet LOPAC_screen_w_protease, primary screen of LOPAC1280 at 5 µM with protease, mean of the two replicates.
Setting [5] is: sheet LOPAC_screen_w_protease, primary screen of LOPAC1280 at 5 µM with protease, replicate 1.
The mark [6] stands for this setting: sheet LOPAC_screen_w_protease, primary screen of LOPAC1280 at 5 µM with protease, replicate 2.
Setting [7] is: sheet LOPAC_screen_w_protease, LOPAC1280 primary screen with protease, 5 µM compound, mean of the two replicates.
The mark [8] stands for this setting: sheet LOPAC_screen_w_protease, LOPAC1280 primary screen with protease, 5 µM compound, replicate 1.
Setting [9] is: sheet LOPAC_screen_w_protease, LOPAC1280 primary screen with protease, 5 µM compound, replicate 2.
The mark [10] stands for this setting: LOPAC1280 primary screen with protease, 5 µM compound, mean of two replicates.
[11] abbreviates: LOPAC1280 primary screen with protease, 5 µM compound, replicate 1.
[12] abbreviates: LOPAC1280 primary screen with protease, 5 µM compound, replicate 2.
Setting [13] is: sheet LOPAC_screen_w_protease, LOPAC1280 at 5 µM, mean of two replicates.
[14] abbreviates: sheet LOPAC_screen_w_protease, LOPAC1280 at 5 µM, replicate 1.
The mark [15] stands for this setting: sheet LOPAC_screen_w_protease, LOPAC1280 at 5 µM, replicate 2.
[16] abbreviates: sheet LOPAC_screen_w_protease, LOPAC1280 primary screen at 5 µM, with protease, mean of the two replicates, read-out: mean.
Where [17] appears, read: sheet LOPAC_screen_w_protease, LOPAC1280 primary screen at 5 µM, with protease, replicate 1, read-out: Replicate_1.
[18] abbreviates: sheet LOPAC_screen_w_protease, LOPAC1280 primary screen at 5 µM, with protease, replicate 2, read-out: Replicate_2.
Setting [19] is: LOPAC1280 primary screen with protease, 5 µM compound, replicate 1, read-out: Replicate_1 (LOPAC_screen_w_protease).
Setting [20] is: LOPAC1280 primary screen with protease, 5 µM compound, replicate 2, read-out: Replicate_2 (LOPAC_screen_w_protease).
The mark [21] stands for this setting: sheet LOPAC_screen_w_protease, mean of two replicates.
The mark [22] stands for this setting: sheet LOPAC_screen_w_protease, replicate 1.
[23] abbreviates: sheet LOPAC_screen_w_protease, replicate 2.

Counter-ions that a name gives are not always drawn. Like-named read-outs stand apart in the source and are kept apart here.

As for `CC(=O)N[C@@H](Cc1c[nH]c2ccccc12)C(=O)OCc1cc(C(F)(F)F)cc(C(F)(F)F)c1` [L-732,138], under setting [1], the mean came out at 2.284. In addition, the Replicate_1 under setting [2] is on record as 2.97. Under setting [3], the Replicate_2 turned out to be 1.597.
Turning to `Cl.FC(F)(F)c1cc(CO[C@H]2CCCN[C@H]2c2ccccc2)cc(C(F)(F)F)c1` [L-733,060 hydrochloride], under setting [4], the mean stood at 3.689. The Replicate_1 under setting [5] is reported as 3.241. The Replicate_2 under setting [6] is on record as 4.136.
Under setting [7], `OC1(c2ccc(Cl)cc2)CCN(Cc2c[nH]c3ccccc23)CC1` [L-741,626] yielded a mean of 4.28. This molecule showed a Replicate_1 under setting [8] of 4.691. In addition, the Replicate_2 under setting [9] was found to be 3.869.
Regarding `Cl.Clc1ccc(N2CCN(Cc3c[nH]c4ncccc34)CC2)cc1` [L-745,870 hydrochloride], the “mean (LOPAC_screen_w_protease)” value under setting [10] amounted to 1.375. Also, under setting [11], the “Replicate_1 (LOPAC_screen_w_protease)” value amounted to 2.129. In addition, under setting [12], the “Replicate_2 (LOPAC_screen_w_protease)” value was found to be 0.6216.
On to `Cl.Cl.Cl.Ic1ccc(N2CCN(Cc3c[nH]c4ncccc34)CC2)cc1` [L-750,667 trihydrochloride], for which the mean under setting [7] was determined as 4.601. Further, the Replicate_1 under setting [8] turned out to be 3.085. The same molecule registered a Replicate_2 under setting [9] of 6.117.
Molecule `COc1cc2nc(N3CCN(C(=O)OCc4ccccc4)C(C(=O)NC(C)(C)C)C3)nc(N)c2cc1OC` [L-765,314] yielded a mean under setting [13] of 1.212. Under setting [14], this molecule yielded a Replicate_1 of 3.331. Further, the Replicate_2 under setting [15] is -0.9073.
With `N=C(N)NCCC[C@H](N)C(=O)O` [L-Arginine], the inhibition at 5 µM under setting [16] is 0.787%, the inhibition at 5 µM under setting [17] stood at 3.1% and the inhibition at 5 µM under setting [18] was -1.52%.
Regarding `CCCCS(=N)(=O)CC[C@H](N)C(=O)O` (stereo partly drawn) [L-Buthionine-sulfoximine], the inhibition at 5 µM by setting is: under setting [19], 1.94%; under setting [20], 2.27%. The “mean (LOPAC_screen_w_protease)” value (LOPAC1280 primary screen with protease, 5 µM compound, mean of the two replicates) was found to be 2.107.
In the case of `NC(N)=NOCC[C@H](N)C(=O)O.O=S(=O)(O)O` [L-Canavanine sulfate], the mean under setting [13] was found to be 1.293. This molecule showed a Replicate_1 under setting [14] of 1.623. Also, the Replicate_2 under setting [15] worked out at 0.9625.
As to `N[C@H]1CON=C1O` [L-Cycloserine], the inhibition at 5 µM (sheet LOPAC_screen_w_protease, primary screen with protease, compound at 5 µM, mean of two replicates, read-out: mean) turned out to be 3.14%; the inhibition at 5 µM (sheet LOPAC_screen_w_protease, primary screen with protease, compound at 5 µM, replicate 1, read-out: Replicate_1) was found to be 0.423%; the inhibition at 5 µM (sheet LOPAC_screen_w_protease, primary screen with protease, compound at 5 µM, replicate 2, read-out: Replicate_2) was 5.86%.
Consider `N[C@@H](CS(=O)O)C(=O)O` [L-Cysteinesulfinic Acid], for which, under setting [10], the “mean (LOPAC_screen_w_protease)” value came to 1.669. Moreover, the “Replicate_1 (LOPAC_screen_w_protease)” value under setting [11] came to 1.739. The “Replicate_2 (LOPAC_screen_w_protease)” value under setting [12] turned out to be 1.598.
Regarding `Cl.N[C@@H](CCC(=O)O)C(=O)O` [L-Glutamic acid hydrochloride], the “mean (LOPAC_screen_w_protease)” value under setting [10] is on record as 1.56. Moreover, the “Replicate_1 (LOPAC_screen_w_protease)” value under setting [11] is recorded as 1.529. Under setting [12], the “Replicate_2 (LOPAC_screen_w_protease)” value was 1.59.
Under setting [13], `O=C(O)CCC(C(=O)O)N1C(=O)c2ccccc2C1=O` [L-Glutamic acid, N-phthaloyl-] showed a mean of 1.263. For the same molecule, the Replicate_1 under setting [14] amounted to 1.846. Under setting [15], the Replicate_2 was 0.6803.
Consider `NC(=O)CC[C@H](N)C(=O)O` [L-Glutamine], for which the inhibition at 5 µM is 0.871% under setting [16], 2.13% under setting [17] and -0.384% under setting [18].
Under setting [4], `Cl.N[C@@H](Cc1cnc[nH]1)C(=O)O` [L-Histidine hydrochloride] gave a mean of 3.829. Under setting [5], this molecule displayed a Replicate_1 of 4.566. For the same molecule, the Replicate_2 under setting [6] came to 3.093.
For the molecule `CC(C)CC(N)CSSCC(N)CC(C)C.Cl.Cl` [L-Leucinethiol, oxidized dihydrochloride], under setting [21], the “mean (LOPAC screen with protease)” value is 45.1144. Further, the “Replicate_1 (LOPAC screen with protease)” value under setting [22] was 48.0888. Also, the “Replicate_2 (LOPAC screen with protease)” value under setting [23] is on record as 42.1401.
Take `CC(=N)NCCCC[C@H](N)C(=O)O.Cl` [L-N6-(1-Iminoethyl)lysine hydrochloride]: the mean under setting [1] is listed as 2.233. Besides, under setting [2], the Replicate_1 was found to be 3.474. Under setting [3], the Replicate_2 is on record as 0.9911.
With `N[C@@H](Cc1c[nH]c2ccccc12)C(=O)O` [L-Tryptophan], the inhibition at 5 µM under setting [16] was 0.58%, the inhibition at 5 µM under setting [17] stood at 2.12% and the inhibition at 5 µM under setting [18] is -0.955%.
In turn, `C=CC[C@H](N)C(=O)O` [L-allylglycine] came in with a mean (sheet LOPAC_screen_w_protease, primary screen with protease, 5 µM, mean of two replicates) of 0.3305. Further, where the note is “sheet LOPAC_screen_w_protease, primary screen with protease, 5 µM, replicate 1”, the Replicate_1 is -0.7105. In addition, where the note is “sheet LOPAC_screen_w_protease, primary screen with protease, 5 µM, replicate 2”, the Replicate_2 is 1.372.
For the molecule `C[C@](N)(Cc1ccc(O)c(O)c1)C(=O)O` [L-alpha-Methyl DOPA], the “mean (LOPAC screen with protease)” value under setting [21] is 7.163. Besides, the “Replicate_1 (LOPAC screen with protease)” value under setting [22] is listed as 6.315. Further, the “Replicate_2 (LOPAC screen with protease)” value under setting [23] was 8.01.
Under setting [7], `C[C@](N)(Cc1ccc(O)cc1)C(=O)O` [L-alpha-Methyl-p-tyrosine] displayed a mean of 4.979. In addition, the Replicate_1 under setting [8] is recorded as 5.136. Moreover, the Replicate_2 under setting [9] is listed as 4.822.
`O=C(O)[C@@H]1CCN1` [L-azetidine-2-carboxylic acid]: the inhibition at 5 µM is -0.00926% (sheet LOPAC_screen_w_protease, primary screen with protease, 5 µM, mean of two replicates, read-out: mean); -0.0704% (sheet LOPAC_screen_w_protease, primary screen with protease, 5 µM, replicate 1, read-out: Replicate_1); 0.0519% (sheet LOPAC_screen_w_protease, primary screen with protease, 5 µM, replicate 2, read-out: Replicate_2).
Take `CN1CCc2ccccc2Cc2[nH]c3ccccc3c2CC1` [LE 300]: the Replicate_1 turned out to be 0.4919, the Replicate_2 is reported as 1.5197 and the mean was found to be 1.0058.
Consider `C/C(O)=C(\C#N)C(=O)Nc1cc(Br)ccc1Br` [LFM-A13], for which the “mean (LOPAC_screen_w_protease)” value under setting [10] turned out to be 1.507. Also, the “Replicate_1 (LOPAC_screen_w_protease)” value under setting [11] is reported as -0.001982. Further, the “Replicate_2 (LOPAC_screen_w_protease)” value under setting [12] was determined as 3.017.
Under setting [4], `CC(O)C(C)OC(=O)[C@@H]1C[C@@H]2c3cccc4c3c(cn4C(C)C)C[C@H]2N(C)C1.O=C(O)/C=C\C(=O)O` (stereo partly drawn) [LY-53,857 maleate] had a mean of 3.324. This molecule also gave a Replicate_1 under setting [5] of 1.754. Under setting [6], this molecule showed a Replicate_2 of 4.894.
For `CN1C2CCC1CC(NC(=O)c1nn(C)c3ccccc13)C2.O=C(O)/C=C\C(=O)O` (stereo not drawn) [LY-278,584 maleate], the mean under setting [7] came out at 4.776. Besides, the Replicate_1 under setting [8] stood at 3.942. In addition, under setting [9], the Replicate_2 was 5.61.
`Cl.O=c1cc(N2CCOCC2)oc2c(-c3ccccc3)cccc12` [LY-294,002 hydrochloride] registered a mean under setting [7] of 5.665. Moreover, the Replicate_1 under setting [8] is listed as 6.484. Also, under setting [9], the Replicate_2 was found to be 4.845.
As for `CC1(C)C(=O)N(CCN2CCC(C(=O)c3ccc(F)cc3)CC2)c2ccccc21.Cl` [LY-310,762 hydrochloride], under setting [10], the “mean (LOPAC_screen_w_protease)” value is reported as 1.717. Moreover, the “Replicate_1 (LOPAC_screen_w_protease)” value under setting [11] worked out at 1.617. Besides, the “Replicate_2 (LOPAC_screen_w_protease)” value under setting [12] is 1.816.
`O=S1(=O)N(CCN2CC=C(c3c[nH]c4cc(F)ccc34)CC2)c2cccc3c2N1CCC3` [LY-367,265] showed a mean under setting [1] of 2.318. For the same molecule, under setting [2], the Replicate_1 is 0.8121. The molecule also gave a Replicate_2 under setting [3] of 3.823.
Take `Nc1nnc(-c2cccc(Cl)c2Cl)c(N)n1` [Lamotrigine]: the inhibition at 5 µM is 1.42% under setting [19] and 1.78% under setting [20]. For the same molecule, the “mean (LOPAC_screen_w_protease)” value under setting [10] is listed as 1.603.
For the molecule `Cc1oncc1C(=O)Nc1ccc(C(F)(F)F)cc1` [Leflunomide], the inhibition at 5 µM came out at 1.27% (sheet LOPAC_screen_w_protease, LOPAC1280 at 5 µM, mean of two replicates, read-out: mean); 0.0888% (sheet LOPAC_screen_w_protease, LOPAC1280 at 5 µM, replicate 1, read-out: Replicate_1); 2.44% (sheet LOPAC_screen_w_protease, LOPAC1280 at 5 µM, replicate 2, read-out: Replicate_2).
Regarding `C=CCN1CC[C@]23CCCC[C@H]2[C@H]1Cc1ccc(O)cc13` [Levallorphan tartrate], the inhibition at 5 µM reads like this: (sheet LOPAC_screen_w_protease, LOPAC1280 primary screen with protease, 5 µM compound, mean of the two replicates, read-out: mean) 4.19%; (sheet LOPAC_screen_w_protease, LOPAC1280 primary screen with protease, 5 µM compound, replicate 1, read-out: Replicate_1) 5.56%; (sheet LOPAC_screen_w_protease, LOPAC1280 primary screen with protease, 5 µM compound, replicate 2, read-out: Replicate_2) 2.81%.
